According to ChEMBL document CHEMBL1201862, “PubChem BioAssay data set” (2004):
One block for each compound: values may come before it. Activity calls are given as the source filed them.

What was measured:
Insulin receptor = Insulin receptor (Homo sapiens, UniProt P06213); assay type: functional;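 further: insulin receptor kinase tested as one member of a kinome-wide kinase panel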
[1] = biological target: Dual specificity tyrosine-phosphorylation-regulated kinase 1B (Homo sapiens, UniProt Q9Y463); test: Navigating the Kinome. Panel member name: DYRK1B; assay type: functional
[2] = biological target: Tyrosine-protein kinase Fer (Homo sapiens, UniProt P16591); assay type: functional;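 further: FER tested as one member of a kinome panel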
[3] = biological target: Leukocyte tyrosine kinase receptor (Homo sapiens, UniProt P29376); test: Navigating the Kinome. Panel member name: LTK; assay type: functional
[4] = biological target: Dual specificity mitogen-activated protein kinase kinase 1 (Homo sapiens, UniProt Q02750); test: Navigating the Kinome. Panel member name: MAP2K1; assay type: functional
[5] = biological target: Maternal embryonic leucine zipper kinase (Homo sapiens, UniProt Q14680); assay type: functional
Chain of Maternal embryonic leucine zipper kinase (Q14680 whole entry): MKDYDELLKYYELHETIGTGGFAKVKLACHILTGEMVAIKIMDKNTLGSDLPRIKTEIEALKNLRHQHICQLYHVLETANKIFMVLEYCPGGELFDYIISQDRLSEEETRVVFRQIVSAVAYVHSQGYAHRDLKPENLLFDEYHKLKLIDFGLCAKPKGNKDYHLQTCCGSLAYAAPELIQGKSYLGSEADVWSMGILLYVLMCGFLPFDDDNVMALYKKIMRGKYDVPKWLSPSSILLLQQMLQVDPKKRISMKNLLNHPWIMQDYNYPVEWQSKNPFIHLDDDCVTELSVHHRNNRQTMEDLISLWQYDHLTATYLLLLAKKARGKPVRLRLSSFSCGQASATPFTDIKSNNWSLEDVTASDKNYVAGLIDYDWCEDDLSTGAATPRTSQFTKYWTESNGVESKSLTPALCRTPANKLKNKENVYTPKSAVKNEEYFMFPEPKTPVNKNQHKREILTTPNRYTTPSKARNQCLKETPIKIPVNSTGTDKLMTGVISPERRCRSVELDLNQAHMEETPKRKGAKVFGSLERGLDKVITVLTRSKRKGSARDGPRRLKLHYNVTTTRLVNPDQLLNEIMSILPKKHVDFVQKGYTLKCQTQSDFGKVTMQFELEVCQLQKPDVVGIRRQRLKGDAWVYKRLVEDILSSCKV

[6] = biological target: 5'-AMP-activated protein kinase catalytic subunit alpha-1 (Homo sapiens, UniProt Q13131); assay type: functional
[7] = biological target: Tyrosine-protein kinase FRK (Homo sapiens, UniProt P42685); assay type: functional;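 further: FRK tested as one member of a kinome panel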
[8] = biological target: Interleukin-1 receptor-associated kinase 4 (Homo sapiens, UniProt Q9NWZ3); assay type: functional
[9] = biological target: Serine/threonine-protein kinase PLK4 (Homo sapiens, UniProt O00444); assay type: functional;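 further: PLK4 measured as one member of a kinome-wide kinase profiling panel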
Chain of Serine/threonine-protein kinase PLK4 (O00444 whole entry): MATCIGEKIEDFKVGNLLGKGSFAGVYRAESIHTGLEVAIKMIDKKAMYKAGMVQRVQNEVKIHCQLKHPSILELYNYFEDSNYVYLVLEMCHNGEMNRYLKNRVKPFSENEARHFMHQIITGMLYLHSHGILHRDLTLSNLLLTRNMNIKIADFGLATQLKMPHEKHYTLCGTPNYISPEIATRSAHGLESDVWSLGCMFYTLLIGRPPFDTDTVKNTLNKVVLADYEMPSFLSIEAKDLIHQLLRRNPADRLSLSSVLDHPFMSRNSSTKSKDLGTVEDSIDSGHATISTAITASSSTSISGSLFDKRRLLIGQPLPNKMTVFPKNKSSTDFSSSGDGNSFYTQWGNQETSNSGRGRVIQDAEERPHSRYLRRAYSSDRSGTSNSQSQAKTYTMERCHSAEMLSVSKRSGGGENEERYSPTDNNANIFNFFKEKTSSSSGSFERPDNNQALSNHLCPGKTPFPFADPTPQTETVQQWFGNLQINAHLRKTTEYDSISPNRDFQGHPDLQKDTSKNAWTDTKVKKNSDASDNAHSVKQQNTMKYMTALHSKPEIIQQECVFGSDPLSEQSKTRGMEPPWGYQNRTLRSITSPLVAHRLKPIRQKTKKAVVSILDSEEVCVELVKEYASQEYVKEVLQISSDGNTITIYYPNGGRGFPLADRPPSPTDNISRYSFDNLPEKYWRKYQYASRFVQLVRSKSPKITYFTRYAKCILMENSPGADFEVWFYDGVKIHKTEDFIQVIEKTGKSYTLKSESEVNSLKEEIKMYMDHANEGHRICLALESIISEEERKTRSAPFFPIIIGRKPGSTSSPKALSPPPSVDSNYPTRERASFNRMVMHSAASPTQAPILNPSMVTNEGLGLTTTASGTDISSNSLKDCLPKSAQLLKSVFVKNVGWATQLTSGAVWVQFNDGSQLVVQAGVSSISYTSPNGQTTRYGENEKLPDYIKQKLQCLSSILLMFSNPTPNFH

[10] = biological target: Calcium/calmodulin-dependent protein kinase type II subunit alpha (Homo sapiens, UniProt Q9UQM7); test: Navigating the Kinome. Panel member name: CAMK2A; assay type: functional
[11] = biological target: Protein kinase C delta type (Homo sapiens, UniProt Q05655); assay type: functional
[12] = biological target: STE20-like serine/threonine-protein kinase (Homo sapiens, UniProt Q9H2G2); assay type: functional
[13] = biological target: Vascular endothelial growth factor receptor 2 (Homo sapiens, UniProt P35968); assay type: functional
[14] = biological target: Serine/threonine-protein kinase D3 (Homo sapiens, UniProt O94806); assay type: functional;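 further: determined within a kinase panel screen, with PRKCN as the panel member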
[15] = biological target: Serine/threonine-protein kinase PAK 4 (Homo sapiens, UniProt O96013); assay type: functional;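 further: value obtained within a kinome profiling panel in which PAK4 was one of the panel members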
[16] = biological target: G protein-coupled receptor kinase 5 (Homo sapiens, UniProt P34947); test: Navigating the Kinome. Panel member name: GPRK5; assay type: functional
[17] = biological target: MAP/microtubule affinity-regulating kinase 4 (Homo sapiens, UniProt Q96L34); test: Navigating the Kinome. Panel member name: MARK4; assay type: functional
[18] = biological target: Dual specificity tyrosine-phosphorylation-regulated kinase 4 (Homo sapiens, UniProt Q9NR20); assay type: functional
Chain of Dual specificity tyrosine-phosphorylation-regulated kinase 4 (Q9NR20 whole entry): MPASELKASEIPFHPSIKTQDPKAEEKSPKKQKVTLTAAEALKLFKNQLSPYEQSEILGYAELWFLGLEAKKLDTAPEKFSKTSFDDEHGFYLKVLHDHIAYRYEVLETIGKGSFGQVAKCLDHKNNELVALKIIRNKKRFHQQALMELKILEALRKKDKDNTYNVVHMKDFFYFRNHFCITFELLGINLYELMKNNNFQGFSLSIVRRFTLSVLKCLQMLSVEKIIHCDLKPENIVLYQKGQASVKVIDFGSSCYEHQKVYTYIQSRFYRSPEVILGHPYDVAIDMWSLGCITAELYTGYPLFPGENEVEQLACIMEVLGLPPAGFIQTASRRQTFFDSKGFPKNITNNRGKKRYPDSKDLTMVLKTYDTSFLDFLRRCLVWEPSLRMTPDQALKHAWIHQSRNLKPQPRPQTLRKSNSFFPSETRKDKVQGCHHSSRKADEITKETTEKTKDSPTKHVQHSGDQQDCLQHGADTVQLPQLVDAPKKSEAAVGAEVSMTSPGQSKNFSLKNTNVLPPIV

[19] = biological target: Homeodomain-interacting protein kinase 2 (Homo sapiens, UniProt Q9H2X6); assay type: functional;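 further: measured within a kinome-wide kinase profiling panel, HIPK2 being one panel member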
[20] = biological target: Ribosomal protein S6 kinase beta-1 (Homo sapiens, UniProt P23443); assay type: functional;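 further: measured as one member of a kinome-wide profiling panel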
Chain of Ribosomal protein S6 kinase beta-1 (P23443 whole entry, canonical isoform): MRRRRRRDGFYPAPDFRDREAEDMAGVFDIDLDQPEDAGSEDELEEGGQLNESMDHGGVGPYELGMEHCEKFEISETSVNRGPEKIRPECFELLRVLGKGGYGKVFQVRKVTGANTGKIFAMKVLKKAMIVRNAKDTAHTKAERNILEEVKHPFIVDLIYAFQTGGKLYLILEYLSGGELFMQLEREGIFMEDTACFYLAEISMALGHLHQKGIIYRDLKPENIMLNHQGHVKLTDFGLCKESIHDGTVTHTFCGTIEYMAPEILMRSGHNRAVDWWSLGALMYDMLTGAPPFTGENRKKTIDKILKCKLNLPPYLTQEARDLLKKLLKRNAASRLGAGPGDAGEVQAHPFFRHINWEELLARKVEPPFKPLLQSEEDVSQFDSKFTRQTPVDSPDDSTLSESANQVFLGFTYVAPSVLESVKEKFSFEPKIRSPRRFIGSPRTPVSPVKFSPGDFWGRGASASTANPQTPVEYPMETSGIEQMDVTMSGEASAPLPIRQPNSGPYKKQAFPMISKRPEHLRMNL

[21] = biological target: Phosphorylase b kinase gamma catalytic chain, liver/testis isoform (Homo sapiens, UniProt P15735); assay type: functional;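 further: PHKG2 measured as one member of a kinome-wide kinase panel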
Chain of Phosphorylase b kinase gamma catalytic chain, liver/testis isoform (P15735 whole entry, canonical isoform): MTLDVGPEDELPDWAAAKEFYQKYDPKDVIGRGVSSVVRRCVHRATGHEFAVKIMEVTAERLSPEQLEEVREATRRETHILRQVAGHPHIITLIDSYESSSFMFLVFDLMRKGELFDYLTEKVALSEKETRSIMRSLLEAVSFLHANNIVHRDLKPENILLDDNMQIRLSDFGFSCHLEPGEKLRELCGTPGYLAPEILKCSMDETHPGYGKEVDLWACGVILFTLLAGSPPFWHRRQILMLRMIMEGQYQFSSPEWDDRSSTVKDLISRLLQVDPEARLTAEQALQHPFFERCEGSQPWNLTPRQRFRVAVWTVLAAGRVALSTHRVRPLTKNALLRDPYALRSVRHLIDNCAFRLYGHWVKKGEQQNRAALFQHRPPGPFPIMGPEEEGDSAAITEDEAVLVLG

SRSF protein kinase 1 = SRSF protein kinase 1 (Homo sapiens, UniProt Q96SB4); assay type: functional;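 further: measured as one member of a kinome-wide kinase profiling panel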
[22] = biological target: MAP kinase-activated protein kinase 2 (Homo sapiens, UniProt P49137); assay type: functional;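 further: measured as one member of a kinome-wide kinase panel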
Chain of MAP kinase-activated protein kinase 2 (P49137 whole entry): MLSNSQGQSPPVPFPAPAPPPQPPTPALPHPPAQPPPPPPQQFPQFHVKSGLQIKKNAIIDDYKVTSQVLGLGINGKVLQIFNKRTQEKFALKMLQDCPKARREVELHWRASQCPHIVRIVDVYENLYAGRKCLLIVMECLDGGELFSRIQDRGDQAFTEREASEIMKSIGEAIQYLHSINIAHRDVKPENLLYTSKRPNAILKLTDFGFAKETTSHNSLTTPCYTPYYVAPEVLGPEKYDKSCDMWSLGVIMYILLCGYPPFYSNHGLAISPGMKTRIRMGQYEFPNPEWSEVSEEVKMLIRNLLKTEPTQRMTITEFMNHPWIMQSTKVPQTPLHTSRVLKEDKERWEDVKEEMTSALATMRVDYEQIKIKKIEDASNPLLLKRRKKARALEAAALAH

[23] = biological target: Mitogen-activated protein kinase 1 (Homo sapiens, UniProt P28482); assay type: functional
[24] = biological target: Dual specificity tyrosine-phosphorylation-regulated kinase 1A (Homo sapiens, UniProt Q13627); assay type: functional;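 further: measured against DYRK1A as one member of a broad kinome profiling panel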
[25] = biological target: Casein kinase II subunit alpha (Homo sapiens, UniProt P68400); assay type: functional
[26] = biological target: Tyrosine-protein kinase JAK2 (Homo sapiens, UniProt O60674); assay type: functional;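 further: JAK2 tested as one member of a kinase panel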
[27] = biological target: Serine/threonine-protein kinase Chk1 (Homo sapiens, UniProt O14757); assay type: functional;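 further: measured as one member of a kinome-wide kinase profiling panel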
Chain of Serine/threonine-protein kinase Chk1 (O14757 whole entry): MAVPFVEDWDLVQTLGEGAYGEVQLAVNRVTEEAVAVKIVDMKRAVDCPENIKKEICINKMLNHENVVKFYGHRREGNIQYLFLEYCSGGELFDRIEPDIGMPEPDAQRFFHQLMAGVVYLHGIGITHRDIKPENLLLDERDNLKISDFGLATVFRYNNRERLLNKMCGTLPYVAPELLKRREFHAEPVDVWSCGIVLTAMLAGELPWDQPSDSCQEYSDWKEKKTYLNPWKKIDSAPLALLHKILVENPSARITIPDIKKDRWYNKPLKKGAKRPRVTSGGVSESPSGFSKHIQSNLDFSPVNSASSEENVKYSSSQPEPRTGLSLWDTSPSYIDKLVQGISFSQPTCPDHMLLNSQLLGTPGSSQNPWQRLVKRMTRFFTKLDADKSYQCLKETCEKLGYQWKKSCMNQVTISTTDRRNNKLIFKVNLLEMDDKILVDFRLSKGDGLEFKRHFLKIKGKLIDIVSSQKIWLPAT

[28] = biological target: Tyrosine-protein kinase JAK3 (Homo sapiens, UniProt P52333); assay type: functional
[29] = biological target: Protein kinase C gamma type (Homo sapiens, UniProt P05129); assay type: functional
Caspase-6 = biological target: T1, Caspase-6 (Homo sapiens, UniProt P55212); test: inhibition of CASP6 peptide cleavage – biochemical, VEID-R110 fluorescence, cherry-pick, dose response (AID 720632)
T1 sequence (P55212 whole entry): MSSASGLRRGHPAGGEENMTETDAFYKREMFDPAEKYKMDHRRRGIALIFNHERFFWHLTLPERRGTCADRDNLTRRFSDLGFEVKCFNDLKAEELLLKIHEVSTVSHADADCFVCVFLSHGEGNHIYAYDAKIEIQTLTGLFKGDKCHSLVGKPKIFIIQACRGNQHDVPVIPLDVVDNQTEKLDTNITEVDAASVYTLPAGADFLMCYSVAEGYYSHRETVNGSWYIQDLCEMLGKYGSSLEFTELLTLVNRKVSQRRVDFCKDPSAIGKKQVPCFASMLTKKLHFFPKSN

[30] = biological target: T2, Sentrin-specific protease 8 (Homo sapiens, UniProt Q96LD8); assay type: functional
T2 sequence (Q96LD8 whole entry): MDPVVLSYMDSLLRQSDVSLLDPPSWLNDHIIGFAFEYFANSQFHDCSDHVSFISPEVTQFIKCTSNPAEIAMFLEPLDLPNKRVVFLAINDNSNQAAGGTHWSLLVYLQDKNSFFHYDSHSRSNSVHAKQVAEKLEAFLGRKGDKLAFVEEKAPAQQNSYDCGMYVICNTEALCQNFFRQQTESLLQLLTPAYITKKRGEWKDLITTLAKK

HEK293 = test: Fluorescence-based counterscreen for potentiators or agonists of NPY-Y1: cell-based high-throughput dose response assay for inhibitors of cyclic nucleotide gated ion channel (CNGC) activity. In this assay, the parental HEK293 cell line transfected with a cyclic-nucleotide gated ion channel (CNGC)-based cAMP sensor is used to measure inhibition of isoproterenol-induced CNGC …; assay type: functional; details: Homo sapiens
[31] = viability loss in THP-1 monocytes – THP-1 cells, cytotoxicity control for Vif-APOBEC3G degradation inhibitor project, dose response (AID 1117359); assay type: functional; details: THP-1
[32] = Counterscreen for AddAB inhibitors: absorbance-based bacterial cell-based high throughput dose response assay for inhibitors of bacterial viability. [Related pubchem assays (depositor defined):AID435030, AID449728, AID449731, AID488942, AID488955, AID488956]; assay type: functional
Genome polyprotein = Genome polyprotein (dengue virus type 2, UniProt P29990); test: flavivirus cap methylation enzyme inhibition – biochemical, confirmation dose response, primary screen (AID 588689); assay type: functional
Chain of Genome polyprotein (P29990 2492-3391 limits assumed): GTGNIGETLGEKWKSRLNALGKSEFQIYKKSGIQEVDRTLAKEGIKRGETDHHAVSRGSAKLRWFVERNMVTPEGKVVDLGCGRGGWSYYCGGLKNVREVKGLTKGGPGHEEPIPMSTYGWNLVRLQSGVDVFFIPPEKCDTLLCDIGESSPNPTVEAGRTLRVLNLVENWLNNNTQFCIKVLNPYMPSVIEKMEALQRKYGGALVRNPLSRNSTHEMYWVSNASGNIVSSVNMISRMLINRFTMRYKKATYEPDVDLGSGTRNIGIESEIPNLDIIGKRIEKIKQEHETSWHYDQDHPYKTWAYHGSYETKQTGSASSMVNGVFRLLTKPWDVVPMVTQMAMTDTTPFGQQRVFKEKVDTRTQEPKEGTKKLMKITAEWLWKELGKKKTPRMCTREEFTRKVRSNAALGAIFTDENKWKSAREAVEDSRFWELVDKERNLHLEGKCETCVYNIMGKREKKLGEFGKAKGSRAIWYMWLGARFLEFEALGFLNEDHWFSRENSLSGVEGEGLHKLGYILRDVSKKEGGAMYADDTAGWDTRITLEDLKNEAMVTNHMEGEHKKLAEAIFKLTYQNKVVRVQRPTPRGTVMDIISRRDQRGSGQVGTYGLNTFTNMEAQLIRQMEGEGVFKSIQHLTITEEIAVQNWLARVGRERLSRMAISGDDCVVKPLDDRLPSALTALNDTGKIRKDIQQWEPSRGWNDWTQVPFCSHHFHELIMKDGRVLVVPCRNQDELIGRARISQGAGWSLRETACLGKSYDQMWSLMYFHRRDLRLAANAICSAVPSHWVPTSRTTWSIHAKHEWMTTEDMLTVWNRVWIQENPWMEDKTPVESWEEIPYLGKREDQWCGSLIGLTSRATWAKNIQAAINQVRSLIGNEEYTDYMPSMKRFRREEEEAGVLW

Ki (Insulin receptor): > 3980 nM (inactive)
Ki [1]: 316 nM (active)
Ki [2]: 501 nM (active)
Ki [3]: > 2510 nM (inactive)
Ki [4]: 31.6 nM (active)
Ki [5]: 200 nM (active)
Ki [6]: 200 nM (active)
Ki [7]: 1000 nM (active)
Ki [8]: 316 nM (active)
Ki [9]: > 2510 nM (inactive)
Ki [10]: > 3160 nM (inactive)
Ki [11]: 126 nM (active)
Ki [12]: 126 nM (active)
Ki [13]: 1260 nM (active)
Ki [14]: 158 nM (active)
Ki [15]: 100 nM (active)
Ki [16]: > 3980 nM (inactive)
Ki [17]: 398 nM (active)
Ki [18]: 1580 nM (active)
Ki [19]: 79.4 nM (active)
Ki [20]: 251 nM (active)
Ki [21]: > 5010 nM (inactive)
Ki (SRSF protein kinase 1): > 7940 nM (inactive)
Ki [22]: 1260 nM (active)
Ki [23]: > 5010 nM (inactive)
Ki [24]: 50.1 nM (active)
Ki [25]: 100 nM (active)
Ki [26]: 158 nM (active)
Ki [27]: 1000 nM (active)
Ki [28]: 200 nM (active)
Ki [29]: 251 nM (active)
Structure (SMILES): OC1CCC(Nc2cc(Cl)nc(-c3c[nH]c4ncccc34)n2)CC1 (configuration not stated)

AC50 (Caspase-6): 11000 nM (active)
Structure (SMILES): O=C(COC(=O)c1ccc([N+](=O)[O-])s1)NCCc1ccccc1
IC50 [30]: 2820 nM (active)

Structure (SMILES): COCC/N=c1\scc(-c2cccs2)n1/N=C/c1ccc(O)c(O)c1O
IC50 (HEK293): > 11800 nM (not active)
CC50 [31]: 16500 nM (active)
IC50 [32]: > 119000 nM (inactive)
IC50 (Genome polyprotein): > 100000 nM (active)
